Measured values as given in patent publication US20260125400A1, “TYK2 DEGRADERS AND USES THEREOF” (Kymera Therapeutics, Inc., priority 2023, published 2026).
Read-outs that look alike come from different tables or passages of the source.

Biological target: T1, TYK2 (Homo sapiens, UniProt P29597)
T1 construct: Degradation of TYK2 in cells was quantitatively measured using Meso Scale Discovery (MSD) technology; endogenous in cells; host or cells: OCI-LY10
Assay: TYK2 MSD degradation in OCI-LY10 cells
Assay type: cell-based
Conditions: 4 to 24 hours incubation; for DC50: read-out: TYK2 MSD OCI-LY10 Rel-DC50
How it was run: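 OCI-LY10 cells were treated with 9-dose 1:3 series (top 1 to 10 μM final) for 4 to 24 hours at 37° C. Lysate TYK2 quantified by MSD sandwich immunoassay; DC50 and Dmax from four-parameter inhibitor vs. response fit.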

[1] = TYK2 degradation in OCI-LY10 cells

T1 sequence (P29597 whole entry): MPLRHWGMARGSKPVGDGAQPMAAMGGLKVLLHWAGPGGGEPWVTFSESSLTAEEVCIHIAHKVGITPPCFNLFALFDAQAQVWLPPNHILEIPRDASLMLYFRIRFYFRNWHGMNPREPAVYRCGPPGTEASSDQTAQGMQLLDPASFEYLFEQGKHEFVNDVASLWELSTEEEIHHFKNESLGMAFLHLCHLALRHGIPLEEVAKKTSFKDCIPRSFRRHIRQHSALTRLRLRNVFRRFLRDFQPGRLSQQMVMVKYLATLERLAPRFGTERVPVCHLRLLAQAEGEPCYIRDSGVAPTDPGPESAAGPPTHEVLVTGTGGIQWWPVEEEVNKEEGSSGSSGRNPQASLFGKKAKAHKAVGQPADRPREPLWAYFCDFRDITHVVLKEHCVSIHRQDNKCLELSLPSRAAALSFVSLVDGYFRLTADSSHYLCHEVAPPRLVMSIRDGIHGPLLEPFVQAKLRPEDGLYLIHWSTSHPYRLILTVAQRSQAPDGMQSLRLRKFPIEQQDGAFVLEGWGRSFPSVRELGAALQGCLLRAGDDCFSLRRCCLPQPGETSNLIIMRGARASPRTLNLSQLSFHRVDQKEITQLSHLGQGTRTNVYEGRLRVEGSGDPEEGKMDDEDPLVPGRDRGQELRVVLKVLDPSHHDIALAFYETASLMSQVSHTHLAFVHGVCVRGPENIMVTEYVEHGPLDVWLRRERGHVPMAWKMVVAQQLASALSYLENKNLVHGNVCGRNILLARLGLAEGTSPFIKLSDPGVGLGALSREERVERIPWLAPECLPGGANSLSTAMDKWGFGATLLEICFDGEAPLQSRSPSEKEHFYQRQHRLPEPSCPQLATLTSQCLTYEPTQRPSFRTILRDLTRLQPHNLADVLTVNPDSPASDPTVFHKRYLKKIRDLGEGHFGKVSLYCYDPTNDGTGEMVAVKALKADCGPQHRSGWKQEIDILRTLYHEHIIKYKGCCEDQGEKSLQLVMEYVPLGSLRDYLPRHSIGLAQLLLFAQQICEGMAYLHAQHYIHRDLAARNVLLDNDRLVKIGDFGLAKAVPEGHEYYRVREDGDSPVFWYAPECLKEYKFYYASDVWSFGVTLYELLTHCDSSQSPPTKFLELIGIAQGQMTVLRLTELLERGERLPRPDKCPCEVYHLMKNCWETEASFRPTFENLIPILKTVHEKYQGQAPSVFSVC

Row | SMILES | TYK2 MSD OCI-LY10 Dmax % [1] | DC50 [1] | TYK2 MSD OCI-LY10 Dmax % (OCI-LY10 cells) | DC50 (OCI-LY10 cells)
1 | CNc1cc(N2CCc3c(CN4CCC(N5CCC(N6CCN(c7ccc8c(c7)n(C)c(=O)n8C7CCC(=O)NC7=O)CC6)CC5)C(F)(F)C4)cccc32)nn2c(C(=O)N[C@@H]3C[C@@H]3F)cnc12 (some centres unmarked) [I-347] | B (B (90 to >75%)) | < 1 nM | – | –
2 | CNc1cc(N2CCc3c(-c4ccc(CN5CC6(CCN(C(=O)c7cnc(C)c(N8CCC(=O)NC8=O)c7)CC6)C5)cn4)cccc32)nn2c(C(=O)N[C@@H]3C[C@@H]3F)cnc12 [I-351] | B (B (90 to >75%)) | < 1 nM | – | –
3 | CNc1cc(N2CCc3c(-c4ccc(CN5CC6(CCN(C(=O)c7cnc(OC)c(N8CCC(=O)NC8=O)c7)CC6)C5)cn4)cccc32)nn2c(C(=O)N[C@@H]3C[C@@H]3F)cnc12 [I-352] | B (B (90 to >75%)) | < 1 nM | – | –
4 | CNc1cc(N2CCc3c(-c4ccc(CN5CC6(CCN(C(=O)c7cncc(N8CCC(=O)NC8=O)c7)CC6)C5)cn4)cccc32)nn2c(C(=O)N[C@@H]3C[C@@H]3F)cnc12 [I-353] | D (D (<50%)) | > 100 nM | – | –
5 | CNc1cc(N2CCc3c(-c4ccc(CN5CC6(CCN(C(=O)c7ccc(C)c(N8CCC(=O)NC8=O)c7)CC6(F)F)C5)cn4)cc(F)cc32)nn2c(C(=O)NC3CC3F)cnc12 (centres unmarked) [I-357] | A (A (>90%)) | < 1 nM | – | –
6 | CNc1cc(N2CCc3c(-c4ccc(CC5CN(C6CCN(C7CCN(c8ccc9c(c8)n(C)c(=O)n9C8CCC(=O)NC8=O)CC7)CC6(F)F)C5)cn4)cccc32)nn2c(C(=O)N[C@@H]3C[C@@H]3F)cnc12 (some centres unmarked) [I-359] | B (B (90 to >75%)) | < 1 nM | – | –
7 | CNc1cc(N2CCc3c(-c4ccc(CN5CCC(N6CCC(C7CCN(c8ccc9c(c8)n(C)c(=O)n9C8CCC(=O)NC8=O)CC7)CC6)C(F)(F)C5)cn4)cccc32)nn2c(C(=O)N[C@@H]3C[C@@H]3F)cnc12 (some centres unmarked) [I-360] | B (B (90 to >75%)) | < 10 nM | – | –
8 | CNc1cc(N2CCc3c(CN4CCC(N5CCC6(CCN(C(=O)c7ccc(Cl)c(N8CCC(=O)NC8=O)c7)CC6)CC5)C(F)(F)C4)cccc32)nn2c(C(=O)N[C@@H]3C[C@@H]3F)cnc12 (some centres unmarked) [I-361] | B (B (90 to >75%)) | < 1 nM | – | –
9 | CNc1cc(N2CCc3c(-c4ccc(OC5CCC6(CC5)CCN(Cc5ccc(Cl)c(N7CCC(=O)NC7=O)c5)CC6)cn4)cccc32)nn2c(C(=O)N[C@@H]3C[C@@H]3F)cnc12 [I-362] | D (D (<50%)) | > 100 nM | – | –
10 | CNc1cc(N2CCc3c(-c4ccc(CN5CCC6(CCN(Cc7ccc(Cl)c(N8CCC(=O)NC8=O)c7)CC6)C(F)(F)C5)cn4)cccc32)nn2c(C(=O)NC3CC3)cnc12 [I-363] | D (D (<50%)) | > 100 nM | – | –
11 | CNc1cc(N2CCc3c(-c4ccc(CN5CC6(CCN(Cc7ccc(Cl)c(C8CCC(=O)NC8=O)c7)CC6(F)F)C5)cn4)cccc32)nn2c(C(=O)N[C@@H]3C[C@@H]3F)cnc12 (some centres unmarked) [I-365] | C (C (75 to 50%)) | < 10 nM | – | –
12 | CNc1cc(N2CCc3c(-c4ccc(CN5CC6(CCN(Cc7ccc(C)c(N8CCC(=O)NC8=O)c7)CC6(F)F)C5)cn4)cccc32)nn2c(C(=O)N[C@@H]3C[C@@H]3F)cnc12 [I-366] | D (D (<50%)) | < 10 nM | – | –
13 | CNc1cc(N2CCc3c(-c4ccc(CN5CC6(CCN(Cc7ccc(OC)c(N8CCC(=O)NC8=O)c7)CC6(F)F)C5)cn4)cccc32)nn2c(C(=O)N[C@@H]3C[C@@H]3F)cnc12 [I-367] | C (C (75 to 50%)) | < 10 nM | – | –
14 | CNc1cc(N2CCc3c(CN4CCC(N5CCC(CC#Cc6ccc7c(c6)n(C)c(=O)n7C6CCC(=O)NC6=O)CC5)C(F)(F)C4)cccc32)nn2c(C(=O)N[C@@H]3C[C@@H]3F)cnc12 (some centres unmarked) [I-368] | D (D (<50%)) | > 100 nM | – | –
15 | CNc1cc(N2CCc3c(-c4ccc(CN5CC6(CCN(Cc7ccc(Cl)c(N8CCC(=O)NC8=O)c7)CC6(F)F)C5)cn4)cccc32)nn2c(C(=O)N[C@@H]3C[C@@H]3F)cnc12 [I-369] | D (D (<50%)) | > 100 nM | – | –
16 | CNc1cc(N2CCc3c(C#CCN4CCC5(CN(C(=O)c6ccc(Cl)c(N7CCC(=O)NC7=O)c6)C5)C(F)(F)C4)cccc32)nn2c(C(=O)N[C@@H]3C[C@@H]3F)cnc12 [I-370] | D (D (<50%)) | > 100 nM | – | –
17 | CNc1cc(N2CCc3c(-c4ccc(CN5CCC(N6CCC7(CCN(c8ccc9c(c8)n(C)c(=O)n9C8CCC(=O)NC8=O)CC7)CC6)C(F)(F)C5)cn4)cccc32)nn2c(C(=O)N[C@@H]3C[C@@H]3F)cnc12 (some centres unmarked) [I-371] | C (C (75 to 50%)) | < 10 nM | – | –
18 | CNc1cc(N2CCc3c(CN4CCC(N5CCC(OCC#Cc6cccc7c6n(C)c(=O)n7C6CCC(=O)NC6=O)CC5)C(F)(F)C4)cccc32)nn2c(C(=O)N[C@@H]3C[C@@H]3F)cnc12 (some centres unmarked) [I-372] | D (D (<50%)) | < 10 nM | – | –
19 | CNc1cc(N2CCc3c(-c4ccc(CN5CCN(Cc6ccc(C7CCC(=O)NC7=O)c(Cl)c6)CC5)cn4)cccc32)nn2c(C(=O)N[C@@H]3C[C@@H]3F)cnc12 (some centres unmarked) [I-374] | D (D (<50%)) | < 10 nM | – | –

Row | SMILES | TYK2 MSD OCI-LY10 Dmax % [1] | DC50 [1] | TYK2 MSD OCI-LY10 Dmax % (OCI-LY10 cells) | DC50 (OCI-LY10 cells)
20 | CNc1cc(N2CCc3c(-c4ccc(CN5CCC(Oc6ccc(C7CCC(=O)NC7=O)c(Cl)c6)CC5)cn4)cccc32)nn2c(C(=O)N[C@@H]3C[C@@H]3F)cnc12 (some centres unmarked) [I-387] | B (B (90 to >75%)) | 10 to 100 nM | – | –
21 | CNc1cc(N2CCc3c(-c4ccc(CN5CCN(Cc6ccc(NC7CCC(=O)NC7=O)c(Cl)c6)CC5)cn4)cccc32)nn2c(C(=O)N[C@@H]3C[C@@H]3F)cnc12 (some centres unmarked) [I-389] | C (C (75 to 50%)) | < 10 nM | – | –
22 | CNc1cc(N2CCc3c(-c4cc(CN5CCN(CCc6ccc(Cl)c(C7CCC(=O)NC7=O)c6)CC5)ccn4)cccc32)nn2c(C(=O)NC3CC3F)cnc12 (centres unmarked) [I-395] | – | – | D (D (<50%)) | > 100 nM
23 | CNc1cc(N2CCc3c(CN4CCC(N5CCN(Cc6ccc(Cl)c(C7CCC(=O)NC7=O)c6)CC5)C(F)(F)C4)cccc32)nn2c(C(=O)NC3CC3F)cnc12 (centres unmarked) [I-421] | – | – | D (D (<50%)) | > 100 nM
24 | CNc1cc(N2CCc3c(-c4ccc(OCC5CCN(Cc6ccc(Cl)c(C7CCC(=O)NC7=O)c6)CC5)cn4)cccc32)nn2c(C(=O)N[C@@H]3C[C@@H]3F)cnc12 (some centres unmarked) [I-425] | – | – | D (D (<50%)) | > 100 nM
25 | CNc1cc(N2CCc3c2cccc3C23CC(CN4CCC(N5CC(N6CCN(c7cccc8c7n(C)c(=O)n8C7CCC(=O)NC7=O)CC6)C5)C(F)(F)C4)(C2)C3)nn2c(C(=O)N[C@@H]3C[C@@H]3F)cnc12 (some centres unmarked) [I-429] | – | – | B (B (90 to >75%)) | < 10 nM
26 | CNc1cc(N2CCc3c(-c4ccc(CN5CC6(CCN(Cc7ccc(OC)c(C8CCC(=O)NC8=O)c7)CC6(F)F)C5)cn4)cccc32)nn2c(C(=O)N[C@@H]3C[C@@H]3F)cnc12 (some centres unmarked) [I-431] | – | – | B (B (90 to >75%)) | < 10 nM
27 | CNc1cc(N2CCc3c(-c4ccc(CN5CC6(CCN(Cc7cc(N8CCC(=O)NC8=O)c(Cl)cc7C)CC6(F)F)C5)cn4)cccc32)nn2c(C(=O)N[C@@H]3C[C@@H]3F)cnc12 [I-456] | – | – | D (D (<50%)) | > 100 nM
28 | CNc1cc(N2CCc3c(-c4ccc(CN5CC6(CCN(Cc7c(C)ccc(N8CCC(=O)NC8=O)c7C)CC6(F)F)C5)cn4)cccc32)nn2c(C(=O)N[C@@H]3C[C@@H]3F)cnc12 [I-458] | – | – | D (D (<50%)) | < 10 nM
29 | CNc1cc(N2CCc3c(-c4ccc(CN5CCC6(CC5)CC(COc5ccc(C7CCC(=O)NC7=O)c(Cl)c5)C6)cn4)cccc32)nn2c(C(=O)N[C@@H]3C[C@@H]3F)cnc12 (some centres unmarked) [I-460] | – | – | D (D (<50%)) | > 100 nM
30 | CNc1cc(N2CCc3c(-c4ccc(CN5CCC6(CC5)CC(COc5ccc(Cl)c(C7CCC(=O)NC7=O)c5)C6)cn4)cccc32)nn2c(C(=O)N[C@@H]3C[C@@H]3F)cnc12 (some centres unmarked) [I-461] | – | – | D (D (<50%)) | < 10 nM
31 | CNc1cc(N2CCc3c(-c4ccc(CN5CC6(CCC(COc7ccc(Cl)c(C8CCC(=O)NC8=O)c7)CC6)C5)cn4)cccc32)nn2c(C(=O)N[C@@H]3C[C@@H]3F)cnc12 (some centres unmarked) [I-462] | – | – | D (D (<50%)) | 10 to 100 nM
32 | CNc1cc(N2CCc3c(-c4ccc(CN5CC6(CCC(COc7ccc(C8CCC(=O)NC8=O)c(Cl)c7)CC6)C5)cn4)cccc32)nn2c(C(=O)N[C@@H]3C[C@@H]3F)cnc12 (some centres unmarked) [I-463] | – | – | D (D (<50%)) | > 100 nM
33 | CNc1cc(N2CCc3c(-c4cnc(CN5CC6(CCN(C(=O)c7ccc(Cl)c(N8CCC(=O)NC8=O)c7)CC6)C5)nc4)cccc32)nn2c(C(=O)N[C@@H]3C[C@@H]3F)cnc12 [I-465] | – | – | B (B (90 to >75%)) | < 10 nM
34 | CNc1cc(N2CCc3c(-c4cnc(CN5CC6(CCN(C(=O)c7ccc(Cl)c(N8CCC(=O)NC8=O)c7)CC6)C5)cn4)cccc32)nn2c(C(=O)N[C@@H]3C[C@@H]3F)cnc12 [I-466] | – | – | A (A (>90%)) | < 1 nM
35 | CNc1cc(N2CCc3c(C#CCN4CCC(N5CCC(C6CCN(c7ccc8c(c7)n(C)c(=O)n8C7CCC(=O)NC7=O)CC6)CC5)C(F)(F)C4)cccc32)nn2c(C(=O)N[C@@H]3C[C@@H]3F)cnc12 (some centres unmarked) [I-467] | – | – | B (B (90 to >75%)) | < 10 nM
36 | CNc1cc(N2CCc3c(CN4CCC(N5CC(CN6CCN(c7ccc8c(c7)n(C)c(=O)n8C7CCC(=O)NC7=O)CC6)C5)C(F)(F)C4)cccc32)nn2c(C(=O)N[C@@H]3C[C@@H]3F)cnc12 (some centres unmarked) [I-468] | – | – | B (B (90 to >75%)) | < 1 nM
37 | CNc1cc(N2CCc3c(-c4ccc(CN5CCC(N6CCC(CC#Cc7ccc8c(c7)n(C)c(=O)n8C7CCC(=O)NC7=O)CC6)C(F)(F)C5)cn4)cccc32)nn2c(C(=O)N[C@@H]3C[C@@H]3F)cnc12 (some centres unmarked) [I-469] | – | – | B (B (90 to >75%)) | < 10 nM
